Experimental data taken from publication PMC8981703 (BMC Medicine, 2022).

Legend:
[1] = clinical; format: in vivo, human; details: plasma
Experimental: (§1) Response assessment was performed every 28 days on day 1 of each cycle. Adverse event (AE) was assessed using the NCI Common Terminology Criteria for Adverse Events (CTCAE) version 4.03. […] Plasma concentrations were determined at the following distinct time points: pre-dose, 0.5 h, 1 h, 1.5 h, 2 h, 3 h, 4 h, 5 h, 6 h, 8 h, 10 h, 24 h, and 48 h. Pharmacokinetics ethnicity sensitivity analysis was performed to evaluate the potential impact of ethnic factors on the acceptability and difference in the data of Chinese and western patients.
PK parameters were obtained by analyzing adequate plasma drug concentration data and calculated using the NCA model with Phoenix WinNonlin v8.3.1. The descriptive statistics of PK parameters were summarized using SAS 9.4.

[2] = system: Chinese patients with RRMM; experiment: MARCH: safety (TEAEs, CTCAE version 4.03), exposure, dose modification, disposition; format: in vivo
Experimental: as §1
Patients who received at least 1 dose of study treatment (modified intent-to-treat [mITT]/safety population) were used for efficacy and safety analysis. Demographics, baseline disease characteristics, and prior anti-MM therapies were summarized for the mITT populations. For the primary analysis of ORR, the primary endpoint, the sample size of 82 patients would provide 80% power to detect a statistical significance with the target ORR of 28% against the threshold ORR (i.e., null hypothesis) of 15% (one-sided α=0.025); statistical significance would be declared if the lower bound of the 95% confidence interval (CI) would be greater than 15%. Time to event endpoints including PFS, OS, and DOR were analyzed using the Kaplan-Meier method.

Structure (SMILES): O=C(/C=C\n1cnc(-c2cc(C(F)(F)F)cc(C(F)(F)F)c2)n1)NNc1cnccn1 [selinexor, Selinexor]
- Tmax ([1]; human, po, 80 mg, single dose selinexor 80 mg oral, C1D1, read-out: median T max): 2.88 h
- AUC(0-t) ([1]; human, po, 80 mg, read-out: mean AUC0–48h): 5800 ng·h/mL
- Cmax ([1]; human, po, 80 mg, read-out: mean C max): 862 ng/mL
- half-life ([1]; human, po, 80 mg, read-out: mean t 1/2 (converted)): 6 h
- median T max ([1]; single dose selinexor 80 mg oral, C1D1): 3 h
- median number of dose reductions ([2]; among the patients with dose reductions): 2
- median time to the first dose reduction ([2]; in vivo): 22.0 days
- patients with a reduction to 80 mg weekly ([2]; in vivo): 20.7%
- patients with a reduction to 100–120 mg weekly ([2]; in vivo): 40.2%
- patients with dose interruptions ([2]; in vivo): 75.6%
- patients with dose reductions ([2]; in vivo): 84.1%
